Assay results from patent US5939318A, “Cholesterol disposal fusion enzymes” (Regents of the University of California, priority 1996, dated 1999).

Key:
[1] = target: fusion enzyme F2, H3N-P450scc-AdRed-Adx-COOH (human P450scc, adrenodoxin reductase 18- form, adrenodoxin) (Homo sapiens, UniProt P05108+P22570); conditions: substrate 0.5 to 5.0 μM, 24 h incubation, F2-transfected COS-1 cells
Method: (§1) Cells were maintained at 37° C. in 5% CO2.
(§2) All samples were assayed in triplicate.

[2] = target: human P450scc (SEQ ID NO: 2), natural three-component system co-expressed with adrenodoxin and adrenodoxin reductase (Homo sapiens, UniProt P05108); conditions: substrate 0.5 to 5.0 μM, 24 h incubation, triply transfected COS-1 cells
Method: as §1, §2

cytochrome P450scc = target: T1, cytochrome P450scc (Bos taurus, UniProt P00189); conditions: Morisaki et al 1980; cited from earlier work
T1 sequence (P00189 40-520): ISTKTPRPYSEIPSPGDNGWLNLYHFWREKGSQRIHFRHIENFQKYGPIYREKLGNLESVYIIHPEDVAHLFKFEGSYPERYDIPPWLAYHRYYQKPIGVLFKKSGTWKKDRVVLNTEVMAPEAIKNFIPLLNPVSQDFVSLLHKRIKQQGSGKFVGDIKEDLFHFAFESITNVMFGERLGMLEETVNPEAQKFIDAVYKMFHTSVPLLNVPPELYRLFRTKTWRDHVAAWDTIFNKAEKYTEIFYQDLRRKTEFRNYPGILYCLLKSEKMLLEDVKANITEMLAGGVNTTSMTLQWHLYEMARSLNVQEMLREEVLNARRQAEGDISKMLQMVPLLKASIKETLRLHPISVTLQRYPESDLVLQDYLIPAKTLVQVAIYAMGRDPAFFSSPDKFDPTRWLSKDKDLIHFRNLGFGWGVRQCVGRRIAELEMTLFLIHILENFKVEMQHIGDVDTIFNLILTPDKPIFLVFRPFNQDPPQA

Chain of fusion enzyme F2, H3N-P450scc-AdRed-Adx-COOH (human P450scc, adrenodoxin reductase 18- form, adrenodoxin) (P05108+P22570 fused): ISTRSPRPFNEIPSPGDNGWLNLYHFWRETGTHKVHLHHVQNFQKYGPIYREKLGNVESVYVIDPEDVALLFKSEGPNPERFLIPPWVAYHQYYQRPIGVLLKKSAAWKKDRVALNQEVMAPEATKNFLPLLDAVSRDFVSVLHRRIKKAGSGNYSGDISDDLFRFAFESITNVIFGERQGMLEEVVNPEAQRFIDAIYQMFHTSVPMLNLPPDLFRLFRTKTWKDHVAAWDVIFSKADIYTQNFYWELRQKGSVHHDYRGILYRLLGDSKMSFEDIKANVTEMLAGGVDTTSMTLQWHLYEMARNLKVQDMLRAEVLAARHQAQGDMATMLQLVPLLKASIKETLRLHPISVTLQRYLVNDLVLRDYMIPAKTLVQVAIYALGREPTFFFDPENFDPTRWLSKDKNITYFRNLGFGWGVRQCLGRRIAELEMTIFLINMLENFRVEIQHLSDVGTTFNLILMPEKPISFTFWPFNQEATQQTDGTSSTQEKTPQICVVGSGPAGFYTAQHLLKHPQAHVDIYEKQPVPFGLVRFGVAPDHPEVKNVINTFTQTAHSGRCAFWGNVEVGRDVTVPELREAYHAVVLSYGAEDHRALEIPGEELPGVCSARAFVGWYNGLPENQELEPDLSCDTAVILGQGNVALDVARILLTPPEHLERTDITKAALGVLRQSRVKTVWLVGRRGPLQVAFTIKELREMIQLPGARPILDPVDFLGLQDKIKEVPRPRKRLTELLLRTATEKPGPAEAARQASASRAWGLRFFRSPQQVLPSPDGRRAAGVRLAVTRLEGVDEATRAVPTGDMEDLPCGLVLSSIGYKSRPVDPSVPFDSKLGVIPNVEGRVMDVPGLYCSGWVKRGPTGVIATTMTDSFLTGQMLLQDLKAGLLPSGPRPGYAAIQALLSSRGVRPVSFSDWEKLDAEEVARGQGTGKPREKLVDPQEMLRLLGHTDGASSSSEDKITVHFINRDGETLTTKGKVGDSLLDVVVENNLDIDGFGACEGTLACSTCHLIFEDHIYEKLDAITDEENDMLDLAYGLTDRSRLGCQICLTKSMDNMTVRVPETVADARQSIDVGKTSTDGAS
Chain of human P450scc (SEQ ID NO: 2), natural three-component system co-expressed with adrenodoxin and adrenodoxin reductase (P05108 40-521 I301M): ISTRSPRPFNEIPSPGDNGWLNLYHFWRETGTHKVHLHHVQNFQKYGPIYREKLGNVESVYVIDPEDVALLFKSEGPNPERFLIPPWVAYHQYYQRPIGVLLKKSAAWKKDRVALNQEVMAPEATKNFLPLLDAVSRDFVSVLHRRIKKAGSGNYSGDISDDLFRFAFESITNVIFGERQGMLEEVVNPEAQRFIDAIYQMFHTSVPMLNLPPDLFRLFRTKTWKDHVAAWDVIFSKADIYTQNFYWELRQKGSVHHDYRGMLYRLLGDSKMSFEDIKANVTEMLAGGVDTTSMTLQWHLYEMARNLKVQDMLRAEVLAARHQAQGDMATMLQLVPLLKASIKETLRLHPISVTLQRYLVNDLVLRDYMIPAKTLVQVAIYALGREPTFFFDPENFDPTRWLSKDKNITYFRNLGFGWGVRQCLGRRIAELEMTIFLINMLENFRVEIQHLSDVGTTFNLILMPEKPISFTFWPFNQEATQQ

SMILES | Km [1] [µM] | Vmax ([1]; pregnenolone in culture medium) [ng/ml/24 h] | Vmax [2] | Km ([2]; dose-response data) [µM] | turnover (cholesterol converted per enzyme) (cytochrome P450scc)
CC(C)CC[C@@H](O)[C@@H](C)[C@H]1CC[C@H]2[C@@H]3CC=C4C[C@@H](O)CC[C@]4(C)[C@H]3CC[C@]12C [22R-hydroxycholesterol] | 2.85 | 9.1 | 1.7 ng pregnenolone/ml of culture medium/24 h | 0.37 | –
CC(C)CCC[C@@H](C)[C@H]1CC[C@H]2[C@@H]3CC=C4C[C@@H](O)CC[C@]4(C)[C@H]3CC[C@]12C [cholesterol] | – | – | – | – | about 1 mole of cholesterol per mole of enzyme per second
